Patent US20250276972A1, “COMPOUNDS AS CASEIN KINASE INHIBITORS” (GRITSCIENCE BIOPHARMACEUTICALS CO.,LTD., priority 2020, published 2025)

How the values were obtained:
CK1δ = target: T1, CK1δ (Homo sapiens, UniProt P48730); assay: CK1δ inhibition (EC50); Bmal1-dLuc or Per2-dLuc U2OS luminescence rhythm period assay; assay type: cell-based; details: Table 3
T1 construct: endogenous in cells; host or cells: Bmal1-dLuc or Per2-dLuc U2OS cells
Protocol: Bmall-dLuc or Per2-dLuc U2OS cells were suspended in the culture medium (DMEM supplemented with 10% fetal bovine serum, 0.29 mg/mL L-glutamine, 100 units/mL penicillin, and […] streptomycin) and plated onto 96-well white solid-bottom plates at 200 μL (10,000 cells) per well. After 2 days, 100 μL of the explant medium (DMEM supplemented with 2% B27, 10 mM HEPES, 0.38 mg/mL sodium bicarbonate, 0.29 mg/mL L-glutamine, 100 units/mL penicillin, […], 0.1 mg/mL gentamicin, and 1 mM luciferin, pH 7.2) was dispensed to each well, followed by the application of 1 μL of a compound of the present application (dissolved in DMSO; final concentration was 0.7% in DMSO). The plate was covered with an optically clear film and set to microplate reader (Infinite M200, Tecan).

[1] = Intrinsic clearance in liver microsomes (human); assay type: in vitro ADME; details: Human liver microsomes 0.5 mg/mL, 2 μM compound, 37° C.
Protocol: (§1) • 1. The master solution was prepared according to Table 5.
(§2) • 2. Three separated experiments were performed as follows. a) With NADPH: 10 μL of 20 mg/mL liver microsomes and 40 μL of 10 mM NADPH were added to the incubations. The final concentrations of microsomes and NADPH were 0.5 mg/mL and 1 mM, respectively. b) Without NADPH: 10 μL of 20 mg/mL liver microsomes and 40 μL of ultra-pure H2O were added to the incubations. The final concentration of microsomes was 0.5 mg/mL. c) Heat-inactivated microsomes without NADPH: 10 μL of 20 mg/mL heat-inactivated liver microsomes and 40 μL of ultra-pure H2O were added to the incubations. The final concentration of microsomes was 0.5 mg/mL. • 3. The reaction was started with the addition of 4 μL of 200 μM test compound solution or control compound solution at the final concentration of 2 μM and carried out at 37° C. • 4. Aliquots of 50 μL were taken from the reaction solution at 0, 15, 30, 45 and 60 min. […] Samples were centrifuged at 3, 220 g for 40 minutes. […] Data Analysis
(§3) Peak areas were determined from extracted ion chromatograms. The slope value, k, was determined by linear regression of the natural logarithm of the remaining percentage of the parent drug vs. incubation time curve.
(§4) The in vitro half-life (in vitro t1/2) was determined from the slope value:
(§5) Conversion of the in vitro t1/2 (min) into the in vitro intrinsic clearance (in vitro CLint, in μL/min/mg protein) was done using the following equation (mean of duplicate determinations): […]

in vitro = details: human, Caco-2, pH 7.4
Protocol: Cells were cultivated for 14-18 days in a cell culture incubator at 37° C., 5% CO2, 95% relative humidity. Cell culture medium was replaced every other day, beginning no later than 24 hours after initial plating.
10 mM stock solutions of test compounds were prepared in DMSO. The stock solutions of positive controls were prepared in DMSO at the concentration of 10 mM.
125 μL of 5 μM working solution of control compound and test compounds were added to the Transwell insert (apical compartment), and transfer 50 μL sample (DO sample) immediately from the apical compartment to a new 96-well plate. […] 285 μL of 5 μM working solution of control compound and test compounds were to the receiver plate wells (basolateral compartment), and transfer 50 μL sample (DO sample) immediately from the basolateral compartment to a new 96-well plate. Fill the wells in the Transwell insert (apical compartment) with 75 μL of HBSS (10 mM HEPES, pH 7.4). […] Samples were Vortexed for 5 minutes and then centrifuged at 3,220 g for 40 minutes. […] 100 μL of the Lucifer yellow solution was added to each Transwell insert (apical compartment), followed by filling the wells in the receiver plate (basolateral compartment) with 300 μL of HBSS (10 mM HEPES, pH 7.4). The plates were Incubated at 37° C. for 30 mins. 80 μL samples were removed directly from the apical and basolateral wells (using the basolateral access holes) and transferred to wells of new 96 wells plates. The Lucifer Yellow fluorescence (to monitor monolayer integrity) signal was measured in a fluorescence plate reader at 485 nm excitation and 530 nm emission.
The apparent permeability coefficient (Papp), in units of centimeter per second, can be calculated for Caco-2 drug transport assays using the following equation: […]

[2] = Intrinsic clearance in liver microsomes (mouse); assay type: in vitro ADME; details: Mouse liver microsomes 0.5 mg/mL, 2 μM compound, 37° C.
Protocol: as §1, §2, §3, §4, §5

wild type CK1δ = wild type CK1δ (Homo sapiens, UniProt P48730); assay: CK1δ kinase assay (Kinase-Glo); assay type: biochemical; details: 10 μM ATP, 2 nM wild type CK1δ, 85 min at 25° C.
wild type CK1δ, sequence (P48730 whole entry): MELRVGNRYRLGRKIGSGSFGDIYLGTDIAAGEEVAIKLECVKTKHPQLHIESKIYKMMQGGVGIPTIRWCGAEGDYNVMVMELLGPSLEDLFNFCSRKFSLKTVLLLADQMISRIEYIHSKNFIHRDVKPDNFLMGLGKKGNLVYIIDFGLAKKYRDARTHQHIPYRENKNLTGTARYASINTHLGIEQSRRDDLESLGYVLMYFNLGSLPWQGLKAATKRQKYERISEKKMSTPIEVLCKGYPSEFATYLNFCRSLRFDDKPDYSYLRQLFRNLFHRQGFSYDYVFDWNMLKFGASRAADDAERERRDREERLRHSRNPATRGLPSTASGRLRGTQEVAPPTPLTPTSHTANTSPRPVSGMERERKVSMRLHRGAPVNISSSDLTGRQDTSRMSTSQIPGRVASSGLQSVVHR
Protocol: The reaction mixture was incubated for 85 min at 25° C.; detection was carried out as described for the Kinase-Glo Assay (Promega). Luminescent output was measured on the Perkin Elmer Envision plate reader (PerkinElmer, Waltham, MA).

[3] = read-out: in vitro CLint (μL/min/mg protein)

T1 sequence (P48730 whole entry): as above

For `CC(=O)Nc1cc(-c2c(-c3ccc(F)cc3)nn3c2CN(CCN(C)C)CC3)ccn1` [Compound I-50, N-(4-(5-(2-(dimethylamino)ethyl)-2-(4-fluorophenyl)-4,5,6,7-tetrahydropyrazolo [1,5-a]pyrazin-3-yl)pyridin-2-yl)acetamide], the EC50 (CK1δ) was 200 nM, the microsomal CLint at 2 μM [1, 3] was 13.5 µL/min/mg and the half-life at 2 μM ([1]; read-out: in vitro t1/2) was 1.71 h. The Papp A→B at 2 h, 5 μM (in vitro) was 0.88 ×10⁻⁶ cm/s, the Papp B→A at 2 h, 5 μM (in vitro) was 22.4 ×10⁻⁶ cm/s and the efflux ratio at 2 h, 5 μM (in vitro) was 25.4. For the same molecule, the microsomal CLint at 2 μM [2, 3] was 35.1 µL/min/mg and the half-life at 2 μM ([2]; read-out: in vitro t1/2) was 0.658 h.
With `Nc1cc(-c2nn3c(c2-c2ccc(F)cc2)C(=O)NCC3)ccn1` [Compound I-64, 2-(2-aminopyridin-4-yl)-3-(4-fluorophenyl)-6,7-dihydropyrazolo[1,5-a]pyrazin-4(5H)-one] the EC50 (CK1δ) was 700 nM and the IC50 (wild type CK1δ) was 334 nM.
Work on `COc1ccc(/C=C/C(=O)Nc2cc(-c3c(-c4ccc(F)cc4)nn4c3CN(C(C)=O)CC4)ccn2)c(OC)c1` [Compound I-69, (E)-N-(4-(5-acetyl-2-(4-fluorophonyl)-4,5,6,7-tetrahydropyrazolo[1,5-a]pyrazin-3-yl)pyridin-2-yl)-3-(2,4-dimethoxyphenyl) acrylamide] yielded an EC50 (CK1δ) of 300 nM and an IC50 (wild type CK1δ) of 37.4 nM.
